Measured values from patent US8969345B2, “Dibenzooxepin derivative” (Kyowa Hakko Kirin Co., Ltd., priority 2011, dated 2015).

Assays:
[1] = molecular target: T1, GAL4-PPAR γ chimeric nuclear receptor (human PPAR γ ligand binding domain) (Homo sapiens, UniProt P37231); assay: PPAR γ transactivation assay by transient gene transfer (GAL4-PPAR γ chimeric receptor, luciferase reporter, HEK293EBNA cells); type: cell-based; conditions: concentration showing 50% of efficacy (maximum activity rate relative to pioglitazone = 100%), 24 hr
T1 construct: expressed in transfected cells; host or cells: HEK293EBNA cells, transient transfection with SuperFect
T1 sequence (P37231 174-475 isoform P37231-2): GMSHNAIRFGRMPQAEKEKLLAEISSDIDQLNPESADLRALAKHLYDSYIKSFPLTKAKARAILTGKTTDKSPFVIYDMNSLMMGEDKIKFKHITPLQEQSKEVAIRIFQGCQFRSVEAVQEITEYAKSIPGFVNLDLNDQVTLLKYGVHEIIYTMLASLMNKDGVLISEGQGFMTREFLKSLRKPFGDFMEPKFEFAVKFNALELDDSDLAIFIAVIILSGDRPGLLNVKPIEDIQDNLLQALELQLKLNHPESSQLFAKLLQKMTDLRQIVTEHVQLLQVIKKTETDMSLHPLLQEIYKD
Procedure: The agonist activity of the test compound to PPAR γ was determined by a transactivation assay method using a chimeric nuclear receptor of a DNA binding region of a yeast transcription factor GAL4 and a PPAR γ ligand binding region. Specifically, the PPAR γ agonist activity of the test compound was evaluated by the following method based on the method of Lehmann et al. (J Biol. Chem., 1995, vol. 270, page 12953).
HEK293EBNA cells cultured in Dulbecco's Modified Eagle medium (Invitrogen) containing 10 v/v % fetal bovine serum (Invitrogen) were used. 30 mL of the above-mentioned cells (density: 1×10^5 cells/mL) were inoculated in a […] (Iwaki Glass), and cultured overnight. Using SuperFect Transfection Reagent (QIAGEN), a plasmid expressing a GAL4-PPAR γ chimeric nuclear receptor fusing 174-475 amino acids, which are human PPAR γ ligand binding domain, and 1-147 amino acids, which are GAL4 DNA binding domain, and a reporter plasmid expressing a GAL4 responsive luciferase were transiently introduced into the cells at a proportion of 4:1. After 5 hr from transfection, the cells were detached from the culture dish, and the detached cells (density: 2×10^4 cells/mL) were inoculated by 100 μL in each well of a 96 well white plate (SUMITOMO BAKELITE), and cultured overnight. The medium was removed, the test compound diluted in various concentrations with serum-free Dulbecco's Modified Eagle medium was added by 100 μL, and the mixture was reacted under a 5% carbon dioxide gas stream (5% CO2) at 37° C. for 24 hr. On the other hand, as a positive control, 10 μmol/L of pioglitazone (100 μL) was added, and the mixture was reacted under a 5% carbon dioxide gas stream (5% CO2) at 37° C. for 24 hr. As a substrate of luciferase, 100 μL of Steady-Glo (Promega) was added to each well and the mixture was thoroughly stirred. Immediately thereafter, the chemical luminescence due to luciferase was measured using TopCount NTX (Packard).
The agonist activity (activity rate (%)) of the test compound to PPAR γ was calculated according to the following formula, as a relative activity when the agonist activity on addition of pioglitazone ([…]) was 100%.

[2] = Metabolic stability evaluation in human liver microsome; type: in vitro ADME; conditions: liver microsomes, pH 7.4; human liver microsome 0.2 mg/mL protein, test compound 1 μmol/L, β-NADPH, 37° C., 30 min; average of two samples; read-out: hCLint (converted)
Procedure: Human liver microsome (pool of 50 donors) was purchased from XenoTech. A reaction mixture containing phosphate buffer (100 mmol/L, pH 7.4), ethylenediamine tetraacetic acid (0.1 mmol/L), magnesium chloride (6 mmol/L), human liver microsome (0.2 mg/mL protein) and test compound (1 μmol/L) was prepared. The reaction mixture was preincubated at 37° C. for 5 min, β-NADPH (1 mmol/L) was added and the mixture was incubated at 37° C. for 30 min. The protein was removed with acetonitrile from the sample after the reaction and the sample was measured by LC-MS/MS. The ratio of the organic solvent in the reaction mixture was set to about 0.5%, and the reaction was performed in 2 samples.
The elimination rate constant (ke) was calculated from the linear regression of the logarithm plot of the residual ratio of the test compound and at 30 min after the reaction, and the liver inherent clearance (Cint) was calculated by the following formula.
[formula] ke: elimination rate constant (1/h) a: concentration (mg/mL) of liver microsome in the reaction mixture b: liver microsome amount per liver unit weight (32.3 mg/g liver) c: liver weight per unit body weight (25.7 g liver/kg body weight) Each test compound was tested in two samples, and the average thereof was calculated.

C/C(=C1/c2ccc(Cc3c(C4CC4)nc4c(C)nccn34)cc2COc2cc(F)ccc21)c1noc(=O)[nH]1 [Compound 14a, (E)-3-(1-{8-[(2-cyclopropyl-8-methylimidazo[1,2-a]pyrazin-3-yl)methyl]-3-fluorodibenzo[b,e]oxepin-11(6H)-ylidene}ethyl)-1,2,4-oxadiazol-5(4H)-one]
EC50 [1]: 15.9 nM
CLint scaled at 1 μmol/L [2]: 30 mL/min/kg
